pIC50: −log10 of the molar value.
Experiments:
[1] = target: T1, Prostaglandin F (FP) Receptor (Homo sapiens, UniProt P43088); assay: Ca2+ assay (FLIPR) for the GPCR prostaglandin F (FP) receptor, agonist and antagonist mode; assay type: cell-based
T1 construct: host or cells: Ca2+ optimized hematopoietic cell lines (rat)
Protocol: Biological and Pharmacological Methods 1. Ca^2+ Assays for the GPCRs Motilin Receptor, Prostaglandin F (FP) Receptor, 5-hydroxytryptamine 2B (5-HT2B) Receptor, and Purinoreceptor P2Y1
Assays were performed using on a FLIPR^TETRA fluorometric imaging plate reader (Molecular Devices) with ScreenWorks Version 2 (Molecular Devices) as device operating and data analysis software.
Dose dependent agonist and antagonist activities were determined. Percentage activation and percentage inhibition values were determined.
Percentage activation was determined upon initial addition of the sample compounds followed by 10 minutes incubation at 25° C. Following compound incubation, reference agonists were added at EC80 to determine percentage inhibition.
Reference agonists were purchased from reputable commercial vendors and prepared according to each ligand's specifications. All handling of ligands were done to ensure proper control throughout the experiments.
Example compounds were weighed on a Microbalance (Mettler MX5) and dissolved in 100% DMSO to a final concentration of 2.5 mM and subsequently diluted into the assay buffer.
The Assay buffer was a supplemented HBSS (Hank's Balanced Salt Solution). HBSS was supplemented with 20 mM HEPES (4-(2-hydroxyethyl)-piperazin-1-ethansulfonic acid) and 2.5 mM Probenecid (Sigma P8761).
GPCR assays were performed using Ca^2+ optimized hematopoietic cell lines (rat) with cultures never exceeding 90% confluency. Cells were harvested and seeded (from cultures at less than 90% confluency) at 50000 cells/well for a 96-well plate (12500 cells/well for 384). After seeding, the assay plates were incubated for forty-five (45) minutes at room temperature. After room temperature incubation, the assay plates were incubated at 37° C. 5% CO2 for 24 hours prior to assaying.
All GPCR assays were performed using Fluo-8 Ca^2+ dye. Ca^2+ dye was prepared at 1× dye concentration in GPCR assay buffer. After 24 hours of incubation, cells were washed with GPCR assay buffer, and then Ca^2+-dye (100 μL/well) was added.
The plates were incubated for 90 minutes at 30° C. 5% CO2 prior to FLIPR assay.
Compound plates were prepared to add 50 μL/well during the agonist assay mode. During the FLIPR assay, 50 μL/well from the compound plate was diluted 3-fold into the existing 100 μL/well from the dye loading step. Therefore all compounds were prepared as 3× the final concentration desired in the assay.
After completion of the first single addition assay run, assay plate was removed from the FLIPR Tetra and placed at 25° C. for seven (7) minutes before antagonist assay.
Using the EC80 values determined during the agonist assay, all pre-incubated sample compound and reference antagonist (if applicable) wells were stimulated at the EC80 of the reference agonist. As reference ligands for the first three assays their obvious natural ligands motilin, prostaglandin F2α, and serotonin (5-HT, 5-Hydroxytryptamine) were used; and for the P2Y1 assay 2MeSATP (2-methyl-thio-adeno-sine 5′-triphosphate, i.e. (2R,3S,4R)-5-(6-amino-2-methylsulfanyl-purin-9-yl)-3,4-dihydroxy-tetrahydrofuran-2-yl]methyl (hydroxy-phosphonooxy-phosphoryl)hydrogen phosphate) was applied.
After the addition of the reference agonist fluorescence was monitored for 180 sec using FLIPR Tetra.
Data Analysis and Results:
From the FLIPR data, with negative control correction enabled, the maximum statistic for each well was exported and percentage activation relative to Emax control was calculated.

in vitro = in vitro ADME, human; conditions: human, plasma; for Plasma Stability T½ [min] hum / Plasma Stability 240 min hum [% remain.]: 10 µM; for Plasma Stability 240 min hum [% remain.]: 4 h
[2] = Metabolic stability assay, human microsomes; assay type: in vitro ADME; conditions: human, microsomes; for half-life at 10 µM: both sexes; for Metabolic Stability 60 min hum [% remain.]: both, 1 h, 10 µM
[3] = Metabolic stability assay, CD-1 mouse microsomes; assay type: in vitro ADME; conditions: CD-1, mouse, microsomes; for half-life at 10 µM: both sexes; for Metabolic Stability 60 min mouse [% remain.]: both, 1 h, 10 µM

T1 sequence (P43088 whole entry): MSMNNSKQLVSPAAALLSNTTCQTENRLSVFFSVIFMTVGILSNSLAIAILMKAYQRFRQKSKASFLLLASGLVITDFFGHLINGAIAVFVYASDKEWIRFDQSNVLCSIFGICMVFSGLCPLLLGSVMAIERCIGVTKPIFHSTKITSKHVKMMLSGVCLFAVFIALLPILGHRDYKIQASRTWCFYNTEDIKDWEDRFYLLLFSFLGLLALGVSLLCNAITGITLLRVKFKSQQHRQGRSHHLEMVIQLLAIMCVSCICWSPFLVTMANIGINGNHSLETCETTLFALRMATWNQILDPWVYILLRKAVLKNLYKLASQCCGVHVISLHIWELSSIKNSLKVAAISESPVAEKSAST

pIC50 [1] | inhibition at 10 µM [1] | Plasma Stability T½ [min] hum (in vitro) | Plasma Stability 240 min hum [% remain.] (in vitro) | half-life at 10 µM [2] | Metabolic Stability 60 min hum [% remain.] [2] | half-life at 10 µM [3] | Metabolic Stability 60 min mouse [% remain.] [3] | half-life at 10 µM (in vitro) | SMILES
7.03 | 99% | > 240 min | 100 % remain. | 16 min | 13 % remain. | 25 min | 29 % remain. |  | CN1CCC[C@H](NC(=O)Cc2cccc(-c3ccccc3)c2)C(=O)N2C[C@@H](NC(=O)Nc3cccc(N(C)C)c3)C[C@H]2COc2cccc(c2)C1=O [Ex. 525, 2-[1,1′-biphenyl]-3-yl-N-[(4S,6S,10S)-6-({[3-(dimethylamino)anilino]carbonyl}amino)-14-methyl-9,15-dioxo-2-oxa-8,14-diazatricyclo[14.3.1.0^4,8]icosa-1(20),16,18-trien-10-yl]acetamide]
5.77 | 78% |  |  | 16 min | 0 % remain. | 17 min | 4 % remain. |  | CCCCCCCCCC(=O)N[C@H]1CN(C)C(=O)c2cccc(c2)OC[C@@H]2C[C@H](NC(=O)Cc3c[nH]c4ccccc34)CN2C(=O)CN(C)C1=O [Ex. 213, N-[(4S,6S,13S)-6-{[2-(1H-indol-3-yl)acetyl]amino}-11,15-dimethyl-9,12,16-trioxo-2-oxa-8,11,15-triazatricyclo[15.3.1.0^4,8]henicosa-1(21),17,19-trien-13-yl]decanamide]
6.92 | 97% | > 240 min | 86 % remain. | 17 min | 8 % remain. | 12 min | 10 % remain. |  | CN1CCC[C@H](NC(=O)Cc2cccc3ccccc23)C(=O)N2C[C@@H](NC(=O)Nc3cccc(N(C)C)c3)C[C@H]2COc2cccc(c2)C1=O [Ex. 512, N-[(4S,6S,10S)-6-({[3-(dimethylamino)anilino]carbonyl}amino)-14-methyl-9,15-dioxo-2-oxa-8,14-diazatricyclo[14.3.1.0^4,8]icosa-1(20),16,18-trien-10-yl]-2-(1-naphthyl)acetamide]
5.52 |  |  |  |  |  |  |  |  | CCCCCCCCCC(=O)N[C@H]1CCCN(C)C(=O)c2cccc(c2)OC[C@@H]2C[C@H](NC(=O)Cc3cccc4ccccc34)CN2C1=O [Ex. 519, N-[(4S,6S,10S)-14-methyl-6-{[2-(1-naphthyl)acetyl]amino}-9,15-dioxo-2-oxa-8,14-diazatricyclo[14.3.1.0^4,8]icosa-1(20),16,18-trien-10-yl]decanamide]
6.37 | 93% |  |  |  |  |  |  |  | CN1CCC[C@H](NC(=O)Cc2ccc3ccccc3c2)C(=O)N2C[C@@H](NC(=O)Nc3cccc(N(C)C)c3)C[C@H]2COc2cccc(c2)C1=O [Ex. 508, N-[(4S,6S,10S)-6-({[3-(dimethylamino)anilino]carbonyl}amino)-14-methyl-9,15-dioxo-2-oxa-8,14-diazatricyclo[14.3.1.0^4,8]icosa-1(20),16,18-trien-10-yl]-2-(2-naphthyl)acetamide]
 | 47% |  |  |  |  |  |  |  | CN1CCC[C@H](NC(=O)C(c2ccccc2)c2ccccc2)C(=O)N2C[C@@H](NC(=O)Cc3ccc(-c4ccccc4)cc3)C[C@H]2COc2cccc(c2)C1=O [Ex. 547, N-[(4S,6S,10S)-6-[(2-[1,1′-biphenyl]-4-ylacetyl)amino]-14-methyl-9,15-dioxo-2-oxa-8,14-diazatricyclo[14.3.1.0^4,8]icosa-1(20),16,18-trien-10-yl]-2,2-diphenylacetamide]
7.23 | 99% | > 240 min | 100 % remain. | 2 min | 1 % remain. | 14 min | 14 % remain. |  | CCCCCCCCCC(=O)N[C@H]1CCCN(C)C(=O)c2cccc(c2)OC[C@@H]2C[C@H](NC(=O)Nc3cccc(N(C)C)c3)CN2C1=O [Ex. 511, N-[(4S,6S,10S)-6-({[3-(dimethylamino)anilino]carbonyl}amino)-14-methyl-9,15-dioxo-2-oxa-8,14-diazatricyclo[14.3.1.0^4,8]icosa-1(20),16,18-trien-10-yl]decanamide]
6.36 | 62% |  |  |  |  |  |  |  | CCCCCCCCCC(=O)N[C@H]1CCCN(C)C(=O)c2cccc(c2)OC[C@@H]2C[C@H](NC(=O)Cc3ccc4ccccc4c3)CN2C1=O [Ex. 504, N-[(4S,6S,10S)-14-methyl-6-{[2-(2-naphthyl)acetyl]amino}-9,15-dioxo-2-oxa-8,14-diazatricyclo[14.3.1.0^4,8]icosa-1(20),16,18-trien-10-yl]decanamide]
 | 72% |  |  |  |  |  |  |  | CN1CCC[C@H](NC(=O)Cc2ccc(-c3ccccc3)cc2)C(=O)N2C[C@@H](NC(=O)Cc3ccc(-c4ccccc4)cc3)C[C@H]2COc2cccc(c2)C1=O [Ex. 551, 2-[1,1′-biphenyl]-4-yl-N-[(4S,6S,10S)-10-[(2-[1,1′-biphenyl]-4-ylacetyl)amino]-14-methyl-9,15-dioxo-2-oxa-8,14-diazatricyclo[14.3.1.0^4,8]icosa-1(20),16,18-trien-6-yl]acetamide]
6.69 | 73% |  | 26 % remain. | 22 min | 23 % remain. | 20 min | 24 % remain. | 109 min | CN1CCC[C@H](NS(=O)(=O)c2ccc(-c3ccccc3)cc2)C(=O)N2C[C@@H](NC(=O)Cc3ccc4ccccc4c3)C[C@H]2COc2cccc(c2)C1=O [Ex. 527, N-[(4S,6S,10S)-10-[([1,1′-biphenyl]-4-ylsulfonyl)amino]-14-methyl-9,15-dioxo-2-oxa-8,14-diazatricyclo[14.3.1.0^4,8]icosa-1(20),16,18-trien-6-yl]-2-(2-naphthyl)acetamide]
6.00 | 81% |  |  |  |  |  |  |  | CN1CCC[C@H](NC(=O)CCCCCOCc2ccccc2)C(=O)N2C[C@@H](NC(=O)Cc3ccc4ccccc4c3)C[C@H]2COc2cccc(c2)C1=O [Ex. 521, 6-(benzyloxy)-N-[(4S,6S,10S)-14-methyl-6-{[2-(2-naphthyl)acetyl]amino}-9,15-dioxo-2-oxa-8,14-diazatricyclo[14.3.1.0^4,8]icosa-1(20),16,18-trien-10-yl]hexanamide]
 | 71% |  |  |  |  |  |  |  | CN1CCC[C@H](NC(=O)CC(C)(C)C)C(=O)N2C[C@@H](NC(=O)Nc3cccc(N(C)C)c3)C[C@H]2COc2cccc(c2)C1=O [Ex. 552, N-[(4S,6S,10S)-6-({[3-(dimethylamino)anilino]carbonyl}amino)-14-methyl-9,15-dioxo-2-oxa-8,14-diazatricyclo[14.3.1.0^4,8]icosa-1(20),16,18-trien-10-yl]-3,3-dimethylbutanamide]
 | 81% |  |  |  |  |  |  |  | CCCCCC(=O)N[C@H]1C[C@H]2COc3cccc(c3)C(=O)N(C)CCC[C@H](NC(=O)Cc3cccc4ccccc34)C(=O)N2C1 [Ex. 544, N-[(4S,6S,10S)-14-methyl-10-{[2-(1-naphthyl)acetyl]amino}-9,15-dioxo-2-oxa-8,14-diazatricyclo[14.3.1.0^4,8]icosa-1(20),16,18-trien-6-yl]hexanamide]

Source: patent US9512139B2, “Conformationally constrained, fully synthetic macrocyclic compounds” (POLYPHOR AG, priority 2009, dated 2016)
